Drawing on patent publication US8129389B2, “Substituted oxindole derivatives, medicaments containing the latter and use thereof” (Abbott GmbH & Co. KG, priority 2005, dated 2012), this text covers Ki for 14 compounds.

Structures are written as SMILES. Like-named read-outs stand apart in the source and are kept apart here. Some results are limits rather than exact numbers.

The target in this assay is T1, human V1b receptors (Homo sapiens, UniProt P47901).
T1 construct: expressed in transfected cells
T1 sequence (P47901 1-424): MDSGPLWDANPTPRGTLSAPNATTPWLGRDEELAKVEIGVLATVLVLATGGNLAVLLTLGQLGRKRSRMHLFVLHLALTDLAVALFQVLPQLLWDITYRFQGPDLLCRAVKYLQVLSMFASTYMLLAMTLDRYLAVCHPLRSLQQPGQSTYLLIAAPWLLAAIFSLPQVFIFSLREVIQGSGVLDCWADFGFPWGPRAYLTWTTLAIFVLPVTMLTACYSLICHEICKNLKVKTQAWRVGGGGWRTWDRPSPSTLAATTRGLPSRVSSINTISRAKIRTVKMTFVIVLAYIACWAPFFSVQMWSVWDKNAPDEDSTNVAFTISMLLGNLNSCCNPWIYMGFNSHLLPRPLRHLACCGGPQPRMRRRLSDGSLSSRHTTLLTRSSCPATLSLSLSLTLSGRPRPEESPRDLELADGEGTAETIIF
The assay is described as follows: Vasopressin V1b receptor binding assay. Here is the method: Vasopressin V1b Receptor Binding Assay:
These DMSO solutions were diluted 1:10 with assay buffer. The substance concentration was further diluted 1:10 in the assay mixture.
The nonspecific binding was determined with 10^−6 M AVP. Determinations in triplicate were carried out.
The affinities for the human vasopressin V1b receptor were measured, and affinity constants determined, in the above assay for the inventive examples.
The affinities of the compounds (I) of the invention for the human vasopressin V1b receptor were measured in accordance with the above assays, and the affinity constants (Ki) were determined. Table 1 below details the V1b receptor affinity of selected compounds (+++ means <10 nM and ++ means 10-100 nM).

The mark [1] stands for this setting: Table 1, human vasopressin V1b receptor affinity, read-out: V1b Ki.
Where [2] appears, read: membranes from CHO-K1 cells, 3H-AVP displacement, read-out: measured Ki values, affinities for the vasopressin V1b receptor.

Broadly, the Ki is a measure of affinity in units of concentration, obtained from inhibition or displacement. `CCOc1ccccc1C1(NC(=O)N2CCN(c3ccc(C#N)cn3)CC2)C(=O)N(S(=O)(=O)c2ccc(C#N)cc2)c2ccc(C#N)cc21` (stereo not shown) [Example 47, 4-(5-Cyanopyridin-2-yl)piperazine-1-[1-(4-cyanobenzenesulfonyl)-5-cyano-2-oxo-3-(2-ethoxyphenyl)-2,3-dihydro-1H-indol-3-yl]carboxamide]: the inhibition constant Ki by setting is: under setting [1], 10 to 100 nM; under setting [2], less than 100 nM.

`CCOc1ccccc1C1(OC(=O)N2CCN(c3nccs3)CC2)C(=O)N(S(=O)(=O)c2ccc(OC)cc2OC)c2ccc(C#N)cc21` (stereo not shown) [Example 30, 1-(2,4-Dimethoxybenzenesulfonyl)-5-cyano-2-oxo-3-(2-ethoxyphenyl)-2,3-dihydro-1H-indol-3-yl 4-(thiazol-2-yl)piperazine-1-carboxylate]: the Ki is, setting by setting: under setting [1], less than 10 nM; under setting [2], less than 100 nM.

For the compound `CCOc1ccccc1C1(OC(=O)N2CCN(c3ccncc3)CC2)C(=O)N(S(=O)(=O)c2ccc(F)cc2F)c2ccc(C#N)cc21` (stereo not shown) [Example 7, 5-Cyano-1-(2,4-difluorobenzenesulfonyl)-3-(2-ethoxyphenyl)-2-oxo-2,3-dihydro-1H-indol-3-yl 4-(pyridin-4-yl)piperazine-1-carboxylate], the Ki was 10 to 100 nM under setting [1] and less than 100 nM under setting [2].

Take `CCOc1ccccc1C1(NC(=O)N2CCN(c3ccc(C#N)cn3)CC2)C(=O)N(S(=O)(=O)c2ccccc2)c2ccc(C#N)cc21` (stereo not shown) [Example 48, 4-(5-Cyanopyridin-2-yl)piperazine-1-[1-benzenesulfonyl-5-cyano-2-oxo-3-(2-ethoxyphenyl)-2,3-dihydro-1H-indol-3-yl]carboxamide]: the Ki is 10 to 100 nM under setting [1] and less than 100 nM under setting [2].

Consider `CCOc1ccccc1C1(OC(=O)N2CCN(c3cnccn3)CC2)C(=O)N(S(=O)(=O)c2ccc(OC)cc2OC)c2ccc(C#N)cc21` (stereo not shown) [Example 29, 1-(2,4-Dimethoxybenzenesulfonyl)-5-cyano-2-oxo-3-(2-ethoxyphenyl)-2,3-dihydro-1H-indol-3-yl 4-(pyrazin-2-yl)piperazine-1-carboxylate], for which the Ki was 10 to 100 nM under setting [1] and less than 100 nM under setting [2].

For the compound `CCOc1ccccc1C1(NC(=O)N2CCN(c3ccc(C#N)cn3)CC2)C(=O)N(S(=O)(=O)c2ccc(Cl)cc2)c2ccc(C#N)cc21` (stereo not shown) [Example 46, 4-(5-Cyanopyridin-2-yl)piperazine-1-[1-(4-chlorobenzenesulfonyl)-5-cyano-2-oxo-3-(2-ethoxyphenyl)-2,3-dihydro-1H-indol-3-yl]carboxamide], the inhibition constant Ki under setting [1] lay within 10 to 100 nM and the Ki under setting [2] was less than 100 nM.

Consider `CCOc1ccccc1C1(OC(=O)N2CCN(c3ccncc3)CC2)C(=O)N(S(=O)(=O)c2ccc(C#N)cc2)c2ccc(C#N)cc21` (stereo not shown) [Example 18, 1-(4-Cyanobenzenesulfonyl)-5-cyano-2-oxo-3-(2-ethoxyphenyl)-2,3-dihydro-1H-indol-3-yl 4-(pyridin-4-yl)piperazine-1-carboxylate], for which the Ki by setting is: under setting [1], 10 to 100 nM; under setting [2], less than 100 nM.

Consider `CCOc1ccccc1C1(NC(=O)N2CCN(c3ccncc3)CC2)C(=O)N(S(=O)(=O)c2ccc(C#N)cc2)c2ccc(C#N)cc21` (stereo not shown) [Example 14, 4-(Pyridin-4-yl)piperazine-1-[1-(4-cyanobenzenesulfonyl)-5-cyano-2-oxo-3-(2-ethoxyphenyl)-2,3-dihydro-1H-indol-3-yl]carboxamide], for which the inhibitory constant (Ki) under setting [1] was less than 10 nM and the inhibitory constant (Ki) under setting [2] was less than 100 nM.

Take `CCOc1ccccc1C1(OC(=O)N2CCN(c3ccncc3)CC2)C(=O)N(S(=O)(=O)c2ccccc2)c2ccc(C#N)cc21` (stereo not shown) [Example 9, 5-Cyano-1-benzenesulfonyl-3-(2-ethoxyphenyl)-2-oxo-2,3-dihydro-1H-indol-3-yl 4-(pyridin-4-yl)-piperazine-1-carboxylate]: the inhibitory constant (Ki) is, setting by setting: under setting [1], 10 to 100 nM; under setting [2], less than 100 nM.

For `CCOc1ccccc1C1(NC(=O)N2CCN(c3ccc(C#N)cn3)CC2)C(=O)N(S(=O)(=O)c2ccc(OC)cc2OC)c2ccc(C#N)cc21` (stereo not shown) [Example 33, 4-(5-Cyanopyridin-2-yl)piperazine-1-[1-(2,4-dimethoxybenzenesulfonyl)-5-cyano-2-oxo-3-(2-ethoxyphenyl)-2,3-dihydro-1H-indol-3-yl]carboxamide], the Ki was less than 10 nM under setting [1] and less than 100 nM under setting [2].

Turning to `CCOc1ccccc1C1(NC(=O)N2CCN(c3ccc(C#N)cn3)CC2)C(=O)N(S(=O)(=O)c2ccccc2OC)c2ccc(C#N)cc21` (stereo not shown) [Example 45, 4-(5-Cyanopyridin-2-yl)piperazine-1-[1-(2-methoxybenzenesulfonyl)-5-cyano-2-oxo-3-(2-ethoxyphenyl)-2,3-dihydro-1H-indol-3-yl]carboxamide], the inhibitory constant (Ki) reads like this: under setting [1], 10 to 100 nM; under setting [2], less than 100 nM.

As to `CCOc1ccccc1C1(OC(=O)N2CCN(c3nccs3)CC2)C(=O)N(S(=O)(=O)c2ccccc2OC)c2ccc(C#N)cc21` (stereo not shown) [Example 4, 5-Cyano-1-(2-methoxybenzenesulfonyl)-3-(2-ethoxyphenyl)-2-oxo-2,3-dihydro-1H-indol-3-yl 4-(thiazol-2-yl)piperazine-1-carboxylate], the Ki is less than 10 nM under setting [1] and less than 100 nM under setting [2].

`CCOc1ccccc1C1(OC(=O)N2CCN(c3nccs3)CC2)C(=O)N(S(=O)(=O)c2ccc(C#N)cc2)c2ccc(C#N)cc21` (stereo not shown) [Example 42, 1-(4-Cyanobenzenesulfonyl)-5-cyano-2-oxo-3-(2-ethoxyphenyl)-2,3-dihydro-1H-indol-3-yl 4-(thiazol-2-yl)piperazine-1-carboxylate]: the inhibition constant Ki under setting [1] lay in the range of 10 to 100 nM and the Ki under setting [2] was less than 100 nM.

In the case of `CCOc1ccccc1C1(OC(=O)N2CCN(c3ccccn3)CC2)C(=O)N(S(=O)(=O)c2ccc(OC)cc2OC)c2ccc(C#N)cc21` (stereo not shown) [Example 25, 1-(2,4-Dimethoxybenzenesulfonyl)-5-cyano-2-oxo-3-(2-ethoxyphenyl)-2,3-dihydro-1H-indol-3-yl 4-(pyridin-2-yl)piperazine-1-carboxylate], the Ki was 10 to 100 nM under setting [1] and less than 100 nM under setting [2].
